Type in all cases: in vivo
Test [1] has as its system HELAN = sunflower (Helianthus annuus). The test is described as follows: General preemergence herbicidal activity, sunflower. Particulars: Helianthus annuus, pre-emergence, 480 h, pre-emergent, visual score after 20-22 days; for pest or weed control at 140 g/ha: 140 g ai/ha. From the text: (§1) Seeds of the desired test plant species were planted in a soil matrix prepared by mixing a loam soil (43 percent silt, 19 percent clay, and 38 percent sand, with a pH of about 8.1 and an organic matter content of about 1.5 percent) and sand in a 70 to 30 ratio. The soil matrix was contained in plastic pots with a surface area of 113 square centimeters. When required to ensure good germination and healthy plants, a fungicide treatment and/or other chemical or physical treatment was applied. A weighed amount, determined by the highest rate to be tested, of each test compound was placed in a 25 mL glass vial and was dissolved in 6 mL of a 97:3 v/v (volume/volume) mixture of acetone and DMSO to obtain concentrated stock solutions. […] The stock solutions obtained were diluted with 18 mL of a 0.1% v/v aqueous solution of Tween® 20 surfactant to obtain spray solutions containing the highest application rate. Additional application rates were obtained by serial dilution of 12 mL of the high rate solution into a solution containing 3 mL of 97:3 v/v mixture of acetone and DMSO and 9 mL of the 0.1% v/v aqueous solution of Tween® 20 surfactant to obtain 1⁄2×, 1⁄4×, 1⁄8× and 1/16× rates of the high rate. Compound requirements are based upon a 12 mL application volume at a rate of 187 L/ha. Formulated compounds were applied to the plant material with an overhead Mandel track sprayer equipped with a […] nozzles calibrated to deliver 187 L/ha over an application area of 0.503 square meters at a spray height of 18 inches (43 cm) above the soil surface. Control plants were sprayed in the same manner with the solvent blank. The treated pots and control pots were placed in a greenhouse maintained with an approximate 15 hour photoperiod and temperatures of about 23-29° C. during the day and 22-28° C. during the night. Nutrients and water were added on a regular basis and supplemental lighting was provided with overhead metal halide 1000-Watt lamps as necessary. The water was added by top-irrigation. After 20-22 days, the condition of the test plants that germinated and grew as compared with that of the untreated plants that emerged and grew was determined visually and scored on a scale of 0 to 100 percent where 0 corresponds to no injury and 100 corresponds to complete kill or no emergence.

Test [2] has as its system ABUTH = velvetleaf (Abutilon theophrasti). The test is described as follows: General preemergence herbicidal activity, velvetleaf. The settings on record: Abutilon theophrasti, pre-emergence, 480 h, pre-emergent, visual score after 20-22 days; for pest or weed control at 140 g/ha: 140 g ai/ha.
Excerpt: as §1

Test [3] deals with CHEAL = lambsquarter (Chenopodium album). The test is described as follows: General preemergence herbicidal activity, lambsquarter. Particulars: Chenopodium album, pre-emergence, 480 h, pre-emergent, visual score after 20-22 days; for pest or weed control at 140 g/ha: 140 g ai/ha.
Excerpt: as §1

A word on the pest or weed control: it is how far the test organism was held down. A high value points to a strong effect.

`COC(=O)c1nc(-c2ccc(Cl)c(OC)c2Cl)nc(N)c1Cl` [Compound 6, 6-Amino-5-chloro-2-(2,4-dichloro-3-methoxyphenyl)pyrimidine-4-carboxylic acid methyl ester]: the results for the pest or weed control at 140 g/ha in test [1], in test [2] and in test [3] were 90%, 60% and 100%, respectively.
As for `COC(=O)c1nc(-c2ccc(Cl)c(OCC(F)F)c2F)nc(N)c1Cl` [Compound 10, 6-Amino-5-chloro-2-[4-chloro-3-(2,2-difluoroethoxy)-2-fluorophenyl]-pyrimidine-4-carboxylic acid methyl ester], the pest or weed control at 280 g/ha is 0% in test [1] (280 g ai/ha), 80% in test [2] (280 g ai/ha) and 60% in test [3] (280 g ai/ha).
Take `COC(=O)c1nc(-c2c(F)cc(Cl)c(OC)c2F)nc(N)c1Cl` [Compound 2, 6-amino-5-chloro-2-(4-chloro-2,6-difluoro-3-methoxy-phenyl)pyrimidine-4-carboxylic acid methyl ester]: the pest or weed control at 140 g/ha was 20% in test [1], 100% in test [2] and 90% in test [3].
For `COC(=O)c1nc(-c2ccc(Cl)c(C(F)F)c2F)nc(N)c1Cl` [Compound 7, 6-Amino-5-chloro-2-(4-chloro-3-difluoromethyl-2-fluorophenyl)pyrimidine-4-carboxylic acid methyl ester], the pest or weed control at 140 g/ha in test [1] was determined as 90%; in test [2], 75%; in test [3], 70%.

These data come from patent US9199943B2, “2-(poly-substituted aryl)-6-amino-5-halo-4-pyrimidinecarboxylic acids and their use as herbicides” (Dow AgroSciences, LLC., priority 2006, dated 2015).
